# Assay results taken from patent US10758534B2 (Vertex Pharmaceuticals Incorporated, priority 2014, dated 2020).
# Target: T1, F508del (Homo sapiens, UniProt P13569, DEL508-508)
# T1 construct: expressed in transfected cells
# Assay: Protocol 2: FRET membrane potential optical assay (VIPR), identification of correction compounds
# Assay type: cell-based
# Settings: F508del CFTR modulator activity; compounds of Table 1; read-out: EC30
# Outline: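 Corrector readout: membrane-potential FRET (CC2-DMPE donor, DiSBAC2(3) acceptor) on VIPR II after Cl⁻-free gluconate bath with 10 μM forskolin and 20 μM genistein. Before this, F508del-expressing NIH3T3 cells were exposed to test compound for 16 h at 37 °C without serum; 27 °C incubation served as temperature-correction control.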
# T1 sequence (P13569 with tags, fused parts or gaps DEL508-508): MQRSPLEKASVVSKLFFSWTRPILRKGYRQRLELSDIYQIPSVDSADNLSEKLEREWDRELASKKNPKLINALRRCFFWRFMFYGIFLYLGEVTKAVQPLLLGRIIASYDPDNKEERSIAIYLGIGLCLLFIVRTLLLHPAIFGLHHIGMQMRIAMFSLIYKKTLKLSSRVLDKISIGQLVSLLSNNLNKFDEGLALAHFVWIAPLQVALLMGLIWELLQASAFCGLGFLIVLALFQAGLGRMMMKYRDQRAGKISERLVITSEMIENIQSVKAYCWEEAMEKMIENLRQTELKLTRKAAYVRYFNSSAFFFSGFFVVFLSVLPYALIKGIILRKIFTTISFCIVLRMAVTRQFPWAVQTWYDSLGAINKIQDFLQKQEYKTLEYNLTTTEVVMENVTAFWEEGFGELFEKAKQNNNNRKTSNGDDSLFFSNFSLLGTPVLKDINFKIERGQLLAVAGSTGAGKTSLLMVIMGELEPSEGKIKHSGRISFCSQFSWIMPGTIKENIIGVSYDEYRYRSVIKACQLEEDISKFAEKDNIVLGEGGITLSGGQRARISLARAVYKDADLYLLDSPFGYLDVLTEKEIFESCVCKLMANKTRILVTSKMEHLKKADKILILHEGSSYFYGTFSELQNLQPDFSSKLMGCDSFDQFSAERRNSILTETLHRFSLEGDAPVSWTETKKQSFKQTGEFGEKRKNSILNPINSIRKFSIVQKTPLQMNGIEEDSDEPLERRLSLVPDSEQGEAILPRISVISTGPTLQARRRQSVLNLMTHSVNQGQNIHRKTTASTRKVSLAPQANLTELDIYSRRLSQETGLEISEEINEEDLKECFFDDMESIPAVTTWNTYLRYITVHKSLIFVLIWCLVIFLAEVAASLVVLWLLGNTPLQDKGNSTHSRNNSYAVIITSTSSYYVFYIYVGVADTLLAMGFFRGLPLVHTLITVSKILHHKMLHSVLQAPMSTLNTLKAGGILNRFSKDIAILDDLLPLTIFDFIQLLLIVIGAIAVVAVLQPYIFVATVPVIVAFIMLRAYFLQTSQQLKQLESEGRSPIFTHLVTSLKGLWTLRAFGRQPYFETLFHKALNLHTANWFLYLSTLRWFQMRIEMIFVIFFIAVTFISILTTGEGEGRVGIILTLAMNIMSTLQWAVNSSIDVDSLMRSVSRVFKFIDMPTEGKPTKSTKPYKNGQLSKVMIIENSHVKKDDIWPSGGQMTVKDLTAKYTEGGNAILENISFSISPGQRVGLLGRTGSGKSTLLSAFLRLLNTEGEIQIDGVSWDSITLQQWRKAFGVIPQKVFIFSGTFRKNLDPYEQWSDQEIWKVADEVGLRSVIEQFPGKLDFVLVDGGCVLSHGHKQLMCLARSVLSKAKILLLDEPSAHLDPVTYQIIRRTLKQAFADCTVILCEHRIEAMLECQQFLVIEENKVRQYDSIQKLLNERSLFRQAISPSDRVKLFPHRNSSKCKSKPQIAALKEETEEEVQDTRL
row,EC30,Structure (SMILES)
1,< 3000 nM,"C[C@@H]1CN(c2nc(-c3ccc4c(c3)OCCO4)ccc2C(=O)NS(=O)(=O)c2cccnc2N)C(C)(C)C1 [Compound 2522, N-[(2-amino-3-pyridyl)sulfonyl]-6-(2,3-dihydro-1,4-benzodioxin-6-yl)-2-[(4S)-2,2,4-trimethylpyrrolidin-1-yl]pyridine-3-carboxamide]"
2,3000 to 10000 nM,"CC1CN(c2ncccc2C(=O)NS(=O)(=O)c2cccc(Oc3ccc4c(c3)CCCC4=O)n2)C(C)(C)C1 (stereo not shown) [Compound 2523, N—[[6-(1-oxotetralin-6-yl)oxy-2-pyridyl]sulfonyl]-2-(2,2,4-trimethylpyrrolidin-1-yl)pyridine-3-carboxamide]"
3,< 3000 nM,"CC1CN(c2ncccc2C(=O)NS(=O)(=O)c2cccc(OCc3ccc(F)cc3)n2)C(C)(C)C1 (stereo not shown) [Compound 2524, N—[[6-[(4-fluorophenyl)methoxy]-2-pyridyl]sulfonyl]-2-(2,2,4-trimethylpyrrolidin-1-yl)pyridine-3-carboxamide]"
4,3000 to 10000 nM,"CCOc1ccc(-c2ccc(C(=O)NS(=O)(=O)N3CC[C@H](N)C3)c(N3C[C@@H](C)CC3(C)C)n2)cc1 [Compound 2525, N-[(3S)-3-aminopyrrolidin-1-yl]sulfonyl-6-(4-ethoxyphenyl)-2-[(4S)-2,2,4-trimethylpyrrolidin-1-yl]pyridine-3-carboxamide]"
5,< 3000 nM,"CCOc1cccc(Nc2cccc(S(=O)(=O)NC(=O)c3cccnc3N3CC(C)CC3(C)C)n2)c1 (stereo not shown) [Compound 2526, N—[[6-(3-ethoxyanilino)-2-pyridyl]sulfonyl]-2-(2,2,4-trimethylpyrrolidin-1-yl)pyridine-3-carboxamide]"
6,< 3000 nM,"COc1cc(F)cc(-c2ccc(C(=O)NS(=O)(=O)c3ccc[nH]c3=O)c(N3C[C@@H](C)CC3(C)C)n2)c1 [Compound 2527, 6-(3-fluoro-5-methoxy-phenyl)-N-[(2-oxo-1H-pyridin-3-yl)sulfonyl]-2-[(4S)-2,2,4-trimethylpyrrolidin-1-yl]pyridine-3-carboxamide]"
7,< 3000 nM,"CCCOc1cccc(S(=O)(=O)NC(=O)c2cccnc2N2CC(C)CC2(C)C)n1 (stereo not shown) [Compound 2528, N-[(6-propoxy-2-pyridyl)sulfonyl]-2-(2,2,4-trimethylpyrrolidin-1-yl)pyridine-3-carboxamide]"
8,< 3000 nM,"COc1ccc(C)cc1-c1ccc(C(=O)NS(=O)(=O)c2ccc[nH]c2=O)c(N2C[C@@H](C)CC2(C)C)n1 [Compound 2530, 6-(2-methoxy-5-methyl-phenyl)-N-[(2-oxo-1H-pyridin-3-yl)sulfonyl]-2-[(4S)-2,2,4-trimethylpyrrolidin-1-yl]pyridine-3-carboxamide]"
9,< 3000 nM,"CCN(CC)c1ccc(Nc2cccc(S(=O)(=O)NC(=O)c3cccnc3N3CC(C)CC3(C)C)n2)cc1 (stereo not shown) [Compound 2531, N—[[6-[4-(diethylamino)anilino]-2-pyridyl]sulfonyl]-2-(2,2,4-trimethylpyrrolidin-1-yl)pyridine-3-carboxamide]"
10,< 3000 nM,"CC1CN(c2ncccc2C(=O)NS(=O)(=O)c2cccc(OCc3ccc(F)c(F)c3)n2)C(C)(C)C1 (stereo not shown) [Compound 2533, N—[[6-[(3,4-difluorophenyl)methoxy]-2-pyridyl]sulfonyl]-2-(2,2,4-trimethylpyrrolidin-1-yl)pyridine-3-carboxamide]"
11,3000 to 10000 nM,"CNc1cccc(S(=O)(=O)NC(=O)c2cccnc2N2CC(C)CC2(C)C)n1 (stereo not shown) [Compound 2535, N—[[6-(methylamino)-2-pyridyl]sulfonyl]-2-(2,2,4-trimethylpyrrolidin-1-yl)pyridine-3-carboxamide]"
12,< 3000 nM,"CC1CN(c2ncccc2C(=O)NS(=O)(=O)c2cccc(N3CCC[C@@H]3C(=O)OC(C)(C)C)n2)C(C)(C)C1 (stereo partly drawn) [Compound 2536, tert-butyl (2R)-1-[6-[[2-(2,2,4-trimethylpyrrolidin-1-yl)pyridine-3-carbonyl]sulfamoyl]-2-pyridyl]pyrrolidine-2-carboxylate]"
13,3000 to 10000 nM,"CC1CN(c2ncccc2C(=O)NS(=O)(=O)c2cccc(N3CC[C@@H](NC(=O)OC(C)(C)C)C3)n2)C(C)(C)C1 (stereo partly drawn) [Compound 2537, tert-butyl N-[(3R)-1-[6-[[2-(2,2,4-trimethylpyrrolidin-1-yl)pyridine-3-carbonyl]sulfamoyl]-2-pyridyl]pyrrolidin-3-yl]carbamate]"
14,< 3000 nM,"C[C@@H]1CN(c2nc(-c3ccccc3OC(F)(F)F)ccc2C(=O)NS(=O)(=O)c2cccnc2N)C(C)(C)C1 [Compound 2539, N-[(2-amino-3-pyridyl)sulfonyl]-6-[12-(trifluoromethoxy)phenyl]-2-[(4S)-2,2,4-trimethylpyrrolidin-1-yl]pyridine-3-carboxamide]"
15,< 3000 nM,"C#CCCC(=O)Nc1cccc(S(=O)(=O)NC(=O)c2ccc(-c3ccc(Cl)c(OCCC)c3)nc2N2[C@H](C)CC[C@@H]2C)n1 [Compound 2540, 6-(4-chloro-3-propoxy-phenyl)-2-[(2R,5S)-2,5-dimethylpyrrolidin-1-yl]-N-[[6-(pent-4-ynoylamino)-2-pyridyl]sulfonyl]pyridine-3-carboxamide]"
16,< 3000 nM,"CC(C)Oc1ccccc1-c1ccc(C(=O)NS(=O)(=O)c2ccc[nH]c2=O)c(N2C[C@@H](C)CC2(C)C)n1 [Compound 2541, 6-(2-isopropoxyphenyl)-N-[(2-oxo-1H-pyridin-3-yl)sulfonyl]-2-[(4S)-2,2,4-trimethylpyrrolidin-1-yl]pyridine-3-carboxamide]"
17,< 3000 nM,"C[C@@H]1CN(c2nc(-c3ccccc3F)ccc2C(=O)NS(=O)(=O)c2ccc[nH]c2=O)C(C)(C)C1 [Compound 2542, 6-(2-fluorophenyl)-N-[(2-oxo-1H-pyridin-3-yl)sulfonyl]-2-[(4S)-2,2,4-trimethylpyrrolidin-1-yl]pyridine-3-carboxamide]"
18,< 3000 nM,"Cc1cc(-c2ccc(C(=O)NS(=O)(=O)c3cccc(N)n3)c(N3C[C@@H](C)CC3(C)C)n2)ccc1OC(F)F [Compound 2543, N-[(6-amino-2-pyridyl)sulfonyl]-6-[4-(difluoromethoxy)-3-methyl-phenyl]-2-[(4S)-2,2,4-trimethylpyrrolidin-1-yl]pyridine-3-carboxamide]"
19,> 10000 nM,"Nc1cccc(S(=O)(=O)NC(=O)c2cccnc2Oc2ccccc2-c2nc3ccccc3o2)n1 [Compound 2544, N-[(6-amino-2-pyridyl)sulfonyl]-2-[2-(1,3-benzoxazol-2-yl)phenoxy]pyridine-3-carboxamide]"

row,Structure (SMILES),EC30
1,"CCCCOCCCNc1cccc(S(=O)(=O)NC(=O)c2cccnc2N2CC(C)CC2(C)C)n1 (stereo not shown) [Compound 2529, N—[[6-(3-butoxypropylamino)-2-pyridyl]sulfonyl]-2-(2,2,4-trimethylpyrrolidin-1-yl)pyridine-3-carboxamide]",< 3000 nM
2,"CC(C)COc1cc(F)cc(-c2ccc(C(=O)NS(=O)(=O)N3C[C@@H](O)[C@H](O)C3)c(N3C[C@@H](C)CC3(C)C)n2)c1 [Compound 2534, N-[(3R,4R)-3,4-dihydroxypyrrolidin-1-yl]sulfonyl-6-(3-fluoro-5-isobutoxy-phenyl)-2-[(4S)-2,2,4-trimethylpyrrolidin-1-yl]pyridine-3-carboxamide]",< 3000 nM
3,"CC(C)COc1cc(F)cc(-c2ccc(C(=O)NS(=O)(=O)c3cccc(N)n3)c(N3CC(C(C)(C)C)CC3(C)C)n2)c1 (stereo not shown) [Compound 2538, N-[(6-amino-2-pyridyl)sulfonyl]-2-(4-tert-butyl-2,2-dimethyl-pyrrolidin-1-yl)-6-(3-fluoro-5-isobutoxy-phenyl)pyridine-3-carboxamide]",< 3000 nM
